Measured values taken from US20250243160A1, “INDOLE DERIVATIVES FOR TARGETING AUTOPHAGY” (Automera PTE. LTD, priority 2024, published 2025).

How the values were obtained:
[1] = system: p62 puncta; assay: p62 puncta immunocytochemistry imaging in HeLa cells; type: cell-based; settings: 24 hours treatment, relative to vehicle control (DMSO)
Method in brief: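 Following 24 h compound or DMSO treatment, HeLa cells were fixed and immunostained for p62 with DAPI counterstain. Puncta counted by imaging on EVOS M7000 (20× objective) or Operetta CLS (63× water objective); reported as fold change versus DMSO.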

[2] = target: Recombinant p62 protein (Homo sapiens, UniProt Q13501); assay: Surface plasmon resonance (SPR) compound binding to p62; settings: 15° C
Chain of Recombinant p62 protein (Q13501 whole entry, species assumed): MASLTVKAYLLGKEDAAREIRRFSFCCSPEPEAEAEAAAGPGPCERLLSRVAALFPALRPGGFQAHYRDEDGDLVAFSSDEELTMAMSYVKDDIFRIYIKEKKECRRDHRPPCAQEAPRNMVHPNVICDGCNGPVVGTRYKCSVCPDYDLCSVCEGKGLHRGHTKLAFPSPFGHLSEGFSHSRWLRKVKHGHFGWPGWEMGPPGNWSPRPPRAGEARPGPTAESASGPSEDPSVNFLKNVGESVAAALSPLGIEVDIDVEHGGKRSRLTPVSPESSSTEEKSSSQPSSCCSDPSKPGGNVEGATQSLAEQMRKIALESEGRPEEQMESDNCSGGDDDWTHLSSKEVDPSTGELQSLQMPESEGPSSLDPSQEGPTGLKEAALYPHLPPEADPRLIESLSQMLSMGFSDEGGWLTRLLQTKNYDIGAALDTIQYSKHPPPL

SMILES | p62 puncta (fold change of p62 puncta levels) [1] | receptor occupancy at 100 µM [2] [%]
OCCNCc1cccc2c1ccn2Cc1ccccc1 [Compound 1, 2-(((1-benzyl-1H-indol-4-yl)methyl)amino)ethan-1-ol] | + (<2-fold change in p62 puncta levels relative to DMSO control) | 30 to 70
OCCNCc1cc(F)cc2c1ccn2Cc1ccc(F)cc1 [Compound 44] | ++ (>2-fold change in p62 puncta levels relative to DMSO control) | > 70
OCCNCc1cc(F)cc2c1ccn2Cc1ccc(Cl)cc1 [Compound 45, 2-(((1-(4-chlorobenzyl)-6-fluoro-1H-indol-4-yl)methyl)amino)ethan-1-ol] | ++ (>2-fold change in p62 puncta levels relative to DMSO control) | 30 to 70
